Assay results reported in the supplement of paper PMC10307832.

How the values were obtained:
Experiment in all cases: relative viability (nuclei count vs DMSO), 5 days (fraction); higher = more cells survive
IDH-C35 + Foretinib = compound: Cc1ccccc1C(C(=O)NC1CCCCC1)N(C(=O)Cn1ccnc1C)c1cccc(F)c1 [IDH-C35] + COc1cc2c(Oc3ccc(NC(=O)C4(C(=O)Nc5ccc(F)cc5)CC4)cc3F)ccnc2cc1OCCCN1CCOCC1 [Foretinib] (partner 0.25 µM)
Method in brief: (§1)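 Relative viability equals treated-well nuclei counts divided by vehicle-well nuclei counts. Counts came from 4× images of lung cancer cell lines grown in 1536-well plates for 5 days after pin-tool dosing on the day after seeding. Dosing used one drug alone or a fixed anchor-drug dose plus five library-drug doses (not always all listed) in √10 steps, and values are medians of duplicate plates.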

IDH-C35 + Crizotinib = compound: Cc1ccccc1C(C(=O)NC1CCCCC1)N(C(=O)Cn1ccnc1C)c1cccc(F)c1 [IDH-C35] + C[C@@H](Oc1cc(-c2cnn(C3CCNCC3)c2)cnc1N)c1c(Cl)ccc(F)c1Cl [Crizotinib] (partner 1 µM)
Method in brief: as §1

[1] = compound: CC1=C(C(=NN1)C)CC2=C(C3=C(S2)N(C(=O)N(C3=O)C)CC(C)C)C(=O)N4C[C@@H](CO4)O + Cc1nc(NC(=O)N2CCC[C@H]2C(N)=O)sc1-c1ccnc(C(C)(C)C(F)(F)F)c1 [Alpelisib] (partner 2 µM)
Method in brief: as §1

[2] = compound: CC1=C(C(=NN1)C)CC2=C(C3=C(S2)N(C(=O)N(C3=O)C)CC(C)C)C(=O)N4C[C@@H](CO4)O + Cc1nc(Nc2ncc(C(=O)Nc3c(C)cccc3Cl)s2)cc(N2CCN(CCO)CC2)n1 [Dasatinib] (partner 0.075 µM)
Method in brief: as §1

Row | Cell Line | relative viability (IDH-C35 + Foretinib; first compound 0.08 µM) | relative viability (IDH-C35 + Foretinib; first compound 0.253 µM) | relative viability (IDH-C35 + Foretinib; first compound 0.8 µM) | relative viability (IDH-C35 + Foretinib; first compound 2.53 µM) | relative viability (IDH-C35 + Foretinib; first compound 8 µM) | relative viability (IDH-C35 + Crizotinib; first compound 0.08 µM) | relative viability (IDH-C35 + Crizotinib; first compound 0.253 µM) | relative viability (IDH-C35 + Crizotinib; first compound 0.8 µM) | relative viability (IDH-C35 + Crizotinib; first compound 2.53 µM) | relative viability (IDH-C35 + Crizotinib; first compound 8 µM) | relative viability ([1]; first compound 0.0025 µM) | relative viability ([1]; first compound 0.007906 µM) | relative viability ([1]; first compound 0.025 µM) | relative viability ([1]; first compound 0.07906 µM) | relative viability ([1]; first compound 0.25 µM) | relative viability ([2]; first compound 0.0025 µM) | relative viability ([2]; first compound 0.007906 µM) | relative viability ([2]; first compound 0.025 µM) | relative viability ([2]; first compound 0.07906 µM) | relative viability ([2]; first compound 0.25 µM)
1 | LOU-NH91 | 0.949 | 0.946 | 0.92 | 0.918 | 0.913 | 0.741 | 0.754 | 0.722 | 0.743 | 0.751 | 0.734 | 0.626 | 0.791 | 0.799 | 0.708 | 0.61 | 0.588 | 0.55 | 0.54 | 0.619
2 | LU99A | 0.939 | 0.915 | 0.81 | 0.69 | 0.85 | 0.585 | 0.612 | 0.587 | 0.578 | 0.539 | 0.559 | 0.589 | 0.581 | 0.568 | 0.611 | 0.584 | 0.502 | 0.533 | 0.508 | 0.462
3 | LXF-289 | 0.969 | 0.94 | 1.01 | 1.01 | 0.969 | 0.794 | 0.774 | 0.771 | 0.798 | 0.798 | 1.01 | 1.01 | 1.03 | 1.01 | 1.07 | 0.248 | 0.241 | 0.226 | 0.142 | 0.247
4 | NCI-H23 | 0.912 | 1.03 | 1.1 | 1.04 | 0.846 | 0.488 | 0.654 | 0.488 | 0.507 | 0.432 | 0.823 | 0.767 | 0.666 | 0.634 | 0.892 | 0.926 | 1.05 | 0.82 | 0.725 | 0.964
5 | NCI-H322M | 0.93 | 0.886 | 0.945 | 0.916 | 0.983 | 0.863 | 0.961 | 0.91 | 0.931 | 1.02 | 0.769 | 0.793 | 0.866 | 0.831 | 0.748 | 0.257 | 0.254 | 0.271 | 0.201 | 0.245
6 | NCI-H358 | 0.757 | 0.738 | 0.685 | 0.769 | 0.603 | 0.67 | 0.516 | 0.559 | 0.505 | 0.589 | 0.893 | 0.906 | 0.78 | 0.903 | 1.04 | 0.18 | 0.198 | 0.166 | 0.162 | 0.15
7 | NCI-H441 | 0.863 | 0.753 | 0.948 | 1 | 0.888 | 0.964 | 0.673 | 0.649 | 0.703 | 0.749 | 0.83 | 0.602 | 0.616 | 1.06 | 0.902 | 0.65 | 0.59 | 0.679 | 0.411 | 0.583
8 | NCI-H460 | 1.02 | 1.01 | 1.02 | 0.989 | 0.904 | 1 | 0.989 | 0.782 | 0.814 | 0.955 | 0.721 | 0.493 | 0.575 | 0.492 | 0.571 | 0.552 | 0.675 | 0.532 | 0.517 | 0.494
9 | NCI-H520 | 0.788 | 0.749 | 0.821 | 0.72 | 0.654 | 0.785 | 0.812 | 0.757 | 0.775 | 0.796 | 0.835 | 1.04 | 0.612 | 0.536 | 0.836 | 0.231 | 0.194 | 0.161 | 0.154 | 0.179
10 | NCI-H596 | 0.948 | 0.796 | 0.775 |  | 0.763 | 0.831 | 0.966 | 1.08 | 1.02 | 0.973 | 0.474 | 0.53 | 0.482 | 0.567 | 0.589 | 0.586 | 0.619 | 0.658 | 0.512 | 0.594
11 | NCI-H647 | 1.36 | 1.13 | 1.28 | 1.17 | 1.02 | 0.876 | 1.02 | 1.05 | 1.07 | 0.98 | 1.16 | 1.03 | 1.19 | 1.32 | 1.75 | 0.408 | 0.241 | 0.194 | 0.112 | 0.15
12 | NCI-H650 | 1.03 | 1.04 | 1.05 |  | 0.981 | 0.671 | 0.677 | 0.9 |  | 0.689 | 1.28 | 1.11 | 0.972 | 1 | 1.18 | 0.493 | 0.548 | 0.365 | 0.514 | 0.443
13 | NCI-H661 | 1.03 | 0.964 | 0.981 | 0.988 | 1.03 | 0.969 | 0.973 |  | 0.975 | 0.971 | 0.914 | 0.803 | 0.559 | 0.654 | 0.421 | 0.907 | 0.833 | 0.906 | 0.881 | 0.872
14 | NCI-H727 | 0.87 | 0.693 | 1.07 | 0.832 | 0.764 | 0.853 | 0.734 | 0.826 | 0.916 | 0.954 | 0.535 | 0.512 | 0.731 | 0.55 | 0.666 | 0.293 | 0.416 | 0.501 | 0.292 | 0.396
15 | NCI-H838 | 1.07 | 0.991 | 0.95 | 0.998 | 1.03 | 0.834 | 0.787 | 0.812 | 0.77 | 0.799 | 1.05 | 1.05 | 0.989 | 0.967 | 0.974 | 0.347 | 0.322 | 0.276 | 0.197 | 0.304
